According to patent US12662490B2, “Heterocyclic compounds” (Hoffmann-La Roche Inc., priority 2019, dated 2026):
pIC50: −log10 of the molar value.

molecular target: T1, MAGL (Homo sapiens, UniProt Q99685); assay: 2-AG assay (MAGL inhibitory activity; hydrolysis of 2-arachidonoylglycerol to arachidonic acid followed by mass spectrometry); format: biochemical; settings: 15 min preincubation at RT, 8 μM 2-arachidonoylglycerol, 30 min at RT, RapidFire MS readout
T1 sequence (Q99685 1-303): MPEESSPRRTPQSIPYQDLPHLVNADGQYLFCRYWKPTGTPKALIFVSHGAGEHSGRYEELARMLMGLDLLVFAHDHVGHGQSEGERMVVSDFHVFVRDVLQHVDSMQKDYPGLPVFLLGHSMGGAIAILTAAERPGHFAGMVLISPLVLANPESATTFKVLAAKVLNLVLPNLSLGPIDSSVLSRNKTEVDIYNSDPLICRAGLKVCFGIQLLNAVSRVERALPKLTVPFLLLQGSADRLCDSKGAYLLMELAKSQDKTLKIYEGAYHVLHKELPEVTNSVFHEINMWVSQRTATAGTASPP
Method: Compounds were profiled for MAGL inhibitory activity by determining the enzymatic activity by following the hydrolysis of the natural substrate 2-arachidonoylglycerol (2-AG) resulting in arachidonic acid, which can be followed by mass spectrometry. This assay is hereinafter abbreviated “2-AG assay”.
The 2-AG assay was carried out in 384 well assay plates (PP, Greiner Cat #784201) in a total volume of 20 μL. Compound dilutions were made in […] (VWR Chemicals 23500.297) in a polypropylene plate in 3-fold dilution steps to give a final concentration range in the assay from 12.5 μM to […]. 0.25 μL compound dilutions (100% DMSO) were added to 9 μL MAGL in assay buffer (50 mM TRIS (GIBCO, 15567-027), 1 mM EDTA (Fluka, 03690-100 mL), 0.010 (v/v) Tween. After shaking, the plate was incubated for 15 min at RT. To start the reaction, 10 μL 2-arachidonoylglycerol in assay buffer was added. The final concentrations in the assay was […] and 8 μM 2-arachidonoylglyerol. After shaking and 30 min incubation at RT, the reaction was quenched by the addition of 40 μL of ACN containing 4 μM of d8-arachidonic acid. The amount of arachidonic acid was traced by an online SPE system (Agilent Rapidfire) coupled to a triple quadrupole mass spectrometer (Agilent 6460). A C18 SPE cartridge (G9205A) was used in an ACN/water liquid setup. The mass spectrometer was operated in negative electrospray mode following the mass transitions 303.1→259.1 for arachidonic acid and 311.1→267.0 for d8-arachidonic acid. The activity of the compounds was calculated based on the ratio of intensities [arachidonic acid/d8-arachidonic acid].

| pIC50 | Structure (SMILES) |
| --- | --- |
| 7.86 | O=C(c1cccc(-c2c[nH]nc2F)c1Cl)N1CCN2C[C@@](O)(c3ccc(C(F)(F)F)nc3)OC[C@@H]2C1 [Example 65, [(3R,9aS)-3-hydroxy-3-[6-(trifluoromethyl)pyridin-3-yl]-1,4,6,7,9,9a-hexahydropyrazino[2,1-c][1,4]oxazin-8-yl]-[2-chloro-3-(3-fluoro-1H-pyrazol-4-yl)phenyl]methanone] |
| 8.72 | O=C(c1cccc(-c2cn[nH]c2)c1Cl)N1CCN2C[C@@H](c3ccc(F)c(Cl)c3)OC[C@@H]2C1 [Example 38, [(3R,9aS)-3-(3-chloro-4-fluoro-phenyl)-3,4,6,7,9,9a-hexahydro-1H-pyrazino[2,1-c][1,4]oxazin-8-yl]-[2-chloro-3-(1H-pyrazol-4-yl)phenyl]methanone] |
| 7.84 | COc1cccc(C(=O)N2CCN3C[C@@H](c4ccc(F)c(Cl)c4)OC[C@@H]3C2)c1Br (racemic) [Example 2, (2-bromo-3-methoxy-phenyl)-[rac-(3R,9aS)-3-(3-chloro-4-fluoro-phenyl)-3,4,6,7,9,9a-hexahydro-1H-pyrazino[2,1-c][1,4]oxazin-8-yl]methanone] |
| 7.80 | COc1ccc(F)c(C(=O)N2CCN3C[C@@](O)(c4ccc(F)c(Cl)c4)OC[C@@H]3C2)c1Cl [Example 116, [(3R,9aS)-3-(3-chloro-4-fluoro-phenyl)-3-hydroxy-1,4,6,7,9,9a-hexahydropyrazino[2,1-c][1,4]oxazin-8-yl]-(2-chloro-6-fluoro-3-methoxy-phenyl)methanone] |
| 8.13 | O=C(c1cccc(-c2cnc[nH]2)c1Cl)N1CCN2C[C@@H](c3ccc(F)c(Cl)c3)OC[C@@H]2C1 [Example 36, [(3R,9aS)-3-(3-chloro-4-fluoro-phenyl)-3,4,6,7,9,9a-hexahydro-1H-pyrazino[2,1-c][1,4]oxazin-8-yl]-[2-chloro-3-(1H-imidazol-5-yl)phenyl]methanone] |
| 7.80 | O=C(c1cccc(-c2cn[nH]c2)c1Cl)N1CCN2C[C@@](O)(c3ccc(C(F)(F)F)nc3)OC[C@@H]2C1 [Example 82, [(3R,9aS)-3-hydroxy-3-[6-(trifluoromethyl)-3-pyridyl]-1,4,6,7,9,9a-hexahydropyrazino[2,1-c][1,4]oxazin-8-yl]-[2-chloro-3-(1H-pyrazol-4-yl)phenyl]methanone] |
| 7.03 | COc1cccc(C(=O)N2CCN3C[C@@H](c4cc(C)c(Cl)cn4)OC[C@@H]3C2)c1Cl [Example 83, (2-chloro-3-methoxyphenyl)((3S,9aS)-3-(5-chloro-4-methylpyridin-2-yl)hexahydropyrazino[2,1-c][1,4]oxazin-8(1H)-yl)methanone] |
| 7.31 | O=C(c1cccc(-c2ccccn2)c1Cl)N1CCN2C[C@@H](c3ccc(F)c(Cl)c3)OC[C@@H]2C1 [Example 30, [(3R,9aS)-3-(3-chloro-4-fluoro-phenyl)-3,4,6,7,9,9a-hexahydro-1H-pyrazino[2,1-c][1,4]oxazin-8-yl]-[2-chloro-3-(2-pyridyl)phenyl]methanone] |
| 6.53 | COc1cccc(C(=O)N2CCN3C[C@](O)(c4nc5ccccc5[nH]4)OC[C@H]3C2)c1Cl (single isomer, unassigned) [Example 61] |
| 7.01 | O=C(c1cccc(-c2cnsc2)c1Cl)N1CCN2C[C@@](O)(c3ccc(F)c(Cl)c3)OC[C@@H]2C1 [Example 127, [(3R,9aS)-3-(3-chloro-4-fluoro-phenyl)-3-hydroxy-1,4,6,7,9,9a-hexahydropyrazino[2,1-c][1,4]oxazin-8-yl]-(2-chloro-3-isothiazol-4-yl-phenyl)methanone] |
| 7.26 | O=C(c1cccc(-c2c[nH]nc2F)c1Cl)N1CCN2C[C@@](O)(c3ccc(C(F)(F)F)[nH]c3=O)OC[C@@H]2C1 [Example 100, 3-[(3R,9aS)-8-[2-chloro-3-(3-fluoro-1H-pyrazol-4-yl)benzoyl]-3-hydroxy-1,4,6,7,9,9a-hexahydropyrazino[2,1-c][1,4]oxazin-3-yl]-6-(trifluoromethyl)-1H-pyridin-2-one] |
| 7.21 | N#Cc1cc([C@@H]2CN3CCN(C(=O)c4cccc(-c5c[nH]nc5F)c4Cl)C[C@H]3CO2)ccc1F [Example 72, 5-[(3R,9aS)-8-[2-chloro-3-(3-fluoro-1H-pyrazol-4-yl)benzoyl]-3,4,6,7,9,9a-hexahydro-1H-pyrazino[2,1-c][1,4]oxazin-3-yl]-2-fluoro-benzonitrile] |
| 8.19 | N#Cc1cc(-c2cc(F)cc(C(=O)N3CCN4C[C@@H](c5ccc(C(F)(F)F)[nH]c5=O)OC[C@@H]4C3)c2Cl)c[nH]1 [Example 112, 4-[3-[(3R,9aS)-3-[2-oxo-6-(trifluoromethyl)-1H-pyridin-3-yl]-3,4,6,7,9,9a-hexahydro-1H-pyrazino[2,1-c][1,4]oxazine-8-carbonyl]-2-chloro-5-fluoro-phenyl]-1H-pyrrole-2-carbonitrile] |
| 6.59 | COc1cccc(C(=O)N2CCN3C[C@@](O)(c4csc(-c5ccc(F)cc5)n4)OC[C@@H]3C2)c1Cl [Example 139, [(3S,9aS)-3-[2-(4-fluorophenyl)thiazol-4-yl]-3-hydroxy-1,4,6,7,9,9a-hexahydropyrazino[2,1-c][1,4]oxazin-8-yl]-(2-chloro-3-methoxy-phenyl)methanone] |
| 7.80 | O=C(c1cccc(-c2c[nH]nc2F)c1Cl)N1CCN2CC(c3ccc(C(F)(F)F)nc3)OC[C@@H]2C1 (mixture of isomers) [Example 68, [(9aS)-3-[6-(trifluoromethyl)-3-pyridyl]-3,4,6,7,9,9a-hexahydro-1H-pyrazino[2,1-c][1,4]oxazin-8-yl]-[2-chloro-3-(3-fluoro-1H-pyrazol-4-yl)phenyl]methanone] |
| 6.68 | Cc1ccncc1-c1cccc(C(=O)N2CCN3C[C@@H](c4ccc(F)c(Cl)c4)OC[C@@H]3C2)c1Cl [Example 27, [(3R,9aS)-3-(3-chloro-4-fluoro-phenyl)-3,4,6,7,9,9a-hexahydro-1H-pyrazino[2,1-c][1,4]oxazin-8-yl]-[2-chloro-3-(4-methyl-3-pyridyl)phenyl]methanone] |
| 6.36 | O=C(c1cccc(-c2c[nH]nc2F)c1Cl)N1CCN2C[C@@H](c3ccc(C(F)(F)F)nn3)OC[C@@H]2C1 [Example 97, [(3S,9aS)-3-[6-(trifluoromethyl)pyridazin-3-yl]-3,4,6,7,9,9a-hexahydro-1H-pyrazino[2,1-c][1,4]oxazin-8-yl]-[2-chloro-3-(3-fluoro-1H-pyrazol-4-yl)phenyl]methanone] |
| 6.11 | COc1cccc(C(=O)N2CCN3C[C@@](O)(c4cc(Cl)cc(-c5cnco5)c4)OC[C@@H]3C2)c1Cl [Example 154, [(3R,9aS)-3-(3-chloro-5-oxazol-5-yl-phenyl)-3-hydroxy-1,4,6,7,9,9a-hexahydropyrazino[2,1-c][1,4]oxazin-8-yl]-(2-chloro-3-methoxy-phenyl)methanone] |
| 6.24 | N#Cc1ncc(-c2cccc(C(=O)N3CCN4C[C@@](O)(c5ccc(F)c(F)c5)OC[C@@H]4C3)c2Cl)[nH]1 [Example 152, 5-[3-[(3R,9aS)-3-(3,4-difluorophenyl)-3-hydroxy-1,4,6,7,9,9a-hexahydropyrazino[2,1-c][1,4]oxazine-8-carbonyl]-2-chloro-phenyl]-1H-imidazole-2-carbonitrile] |
| 6.93 | COc1cccc(C(=O)N2CCN3C[C@@](O)(c4ccc(F)c(F)c4F)OC[C@@H]3C2)c1Cl [Example 130, [(3R,9aS)-3-hydroxy-3-(2,3,4-trifluorophenyl)-1,4,6,7,9,9a-hexahydropyrazino[2,1-c][1,4]oxazin-8-yl]-(2-chloro-3-methoxy-phenyl)methanone] |
| 7.09 | O=C(c1cccc(-c2c[nH]nc2F)c1)N1CCN2C[C@@](O)(c3ccc(C(F)(F)F)nc3)OC[C@@H]2C1 [Example 81, [(3R,9aS)-3-hydroxy-3-[6-(trifluoromethyl)-3-pyridyl]-1,4,6,7,9,9a-hexahydropyrazino[2,1-c][1,4]oxazin-8-yl]-[3-(3-fluoro-1H-pyrazol-4-yl)phenyl]methanone] |
| 7.33 | O=C(c1cccc(-c2c[nH]nc2F)c1Cl)N1CCN2C[C@@H](c3cc(Cl)c[nH]c3=O)OC[C@@H]2C1 [Example 77, 3-[(3R,9aS)-8-[2-chloro-3-(3-fluoro-1H-pyrazol-4-yl)benzoyl]-3,4,6,7,9,9a-hexahydro-1H-pyrazino[2,1-c][1,4]oxazin-3-yl]-5-chloro-1H-pyridin-2-one] |
| 7.07 | COc1cccc(C(=O)N2CCN3C[C@@H](c4ccc(F)c(Cl)c4)OC[C@@H]3C2)c1F [Example 9, [(3R,9aS)-3-(3-chloro-4-fluoro-phenyl)-3,4,6,7,9,9a-hexahydro-1H-pyrazino[2,1-c][1,4]oxazin-8-yl]-(2-fluoro-3-methoxy-phenyl)methanone] |
